One assay has as its target T1, mA1AR (Mus musculus, UniProt Q60612).
T1 sequence (Q60612 1-326): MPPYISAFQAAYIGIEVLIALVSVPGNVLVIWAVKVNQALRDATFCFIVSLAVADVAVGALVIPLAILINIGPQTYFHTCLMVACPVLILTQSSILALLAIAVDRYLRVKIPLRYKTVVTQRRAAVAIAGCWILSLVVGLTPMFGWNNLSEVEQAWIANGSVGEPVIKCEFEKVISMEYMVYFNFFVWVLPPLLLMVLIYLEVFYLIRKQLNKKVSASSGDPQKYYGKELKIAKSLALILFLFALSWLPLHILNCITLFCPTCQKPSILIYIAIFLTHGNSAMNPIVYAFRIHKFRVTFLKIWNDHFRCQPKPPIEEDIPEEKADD
The conditions noted are these: read-out: Affinity (Ki) mA1; ref Melman et al.[21]; cited from earlier work.

A further assay addresses mA2AAR (Mus musculus, UniProt Q60613). The conditions noted are these: read-out: Affinity (Ki) mA2A; ref Melman et al.[21]; cited from earlier work.
The target in the next assay is T2, mA3AR (Mus musculus, UniProt Q61618).
T2 sequence (Q61618 1-319): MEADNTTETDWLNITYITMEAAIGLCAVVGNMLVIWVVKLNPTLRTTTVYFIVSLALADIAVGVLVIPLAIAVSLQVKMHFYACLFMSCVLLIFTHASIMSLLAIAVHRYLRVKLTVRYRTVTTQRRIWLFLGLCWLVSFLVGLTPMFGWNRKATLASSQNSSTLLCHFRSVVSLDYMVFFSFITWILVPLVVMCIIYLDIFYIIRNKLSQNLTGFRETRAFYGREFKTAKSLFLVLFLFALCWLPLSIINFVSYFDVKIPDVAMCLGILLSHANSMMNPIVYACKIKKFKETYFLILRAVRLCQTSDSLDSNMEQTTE
The conditions noted are these: read-out: Affinity (Ki) mA3; ref Melman et al.[21]; cited from earlier work.

The target of assay [1] is T3, hA3AR (Homo sapiens, UniProt P0DMS8).
T3 sequence (P0DMS8 1-318): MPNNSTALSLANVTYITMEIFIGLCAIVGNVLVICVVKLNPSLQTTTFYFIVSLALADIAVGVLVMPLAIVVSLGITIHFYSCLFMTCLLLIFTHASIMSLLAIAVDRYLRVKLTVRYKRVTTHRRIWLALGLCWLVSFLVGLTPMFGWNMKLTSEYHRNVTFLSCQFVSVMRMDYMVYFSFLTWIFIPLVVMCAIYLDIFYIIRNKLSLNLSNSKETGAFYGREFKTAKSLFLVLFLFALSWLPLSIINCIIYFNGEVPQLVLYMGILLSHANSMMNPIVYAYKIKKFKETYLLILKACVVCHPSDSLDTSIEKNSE
Briefly: Radioligand binding at hA3AR.

A further assay concerns the target T4, hA1AR (Homo sapiens, UniProt P30542).
T4 sequence (P30542 1-326): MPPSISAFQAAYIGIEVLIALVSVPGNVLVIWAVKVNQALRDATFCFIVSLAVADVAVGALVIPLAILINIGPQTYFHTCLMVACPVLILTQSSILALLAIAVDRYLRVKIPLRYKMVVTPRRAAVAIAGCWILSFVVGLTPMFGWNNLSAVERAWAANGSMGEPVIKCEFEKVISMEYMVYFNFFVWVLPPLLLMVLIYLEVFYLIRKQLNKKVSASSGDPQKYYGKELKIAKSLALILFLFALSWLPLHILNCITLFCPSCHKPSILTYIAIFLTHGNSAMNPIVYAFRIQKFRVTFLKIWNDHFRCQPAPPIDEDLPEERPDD
The experiment in a line: Radioligand binding at hA1AR.

In assay [2] the target is T3, hA3AR. The assay is classed as cell-based. The conditions noted are these: at 10 μM.
In another assay the target is hA2AAR (Homo sapiens, UniProt P29274). The experiment in a line: Radioligand binding at hA2AAR.
hA2AAR, sequence (P29274 whole entry): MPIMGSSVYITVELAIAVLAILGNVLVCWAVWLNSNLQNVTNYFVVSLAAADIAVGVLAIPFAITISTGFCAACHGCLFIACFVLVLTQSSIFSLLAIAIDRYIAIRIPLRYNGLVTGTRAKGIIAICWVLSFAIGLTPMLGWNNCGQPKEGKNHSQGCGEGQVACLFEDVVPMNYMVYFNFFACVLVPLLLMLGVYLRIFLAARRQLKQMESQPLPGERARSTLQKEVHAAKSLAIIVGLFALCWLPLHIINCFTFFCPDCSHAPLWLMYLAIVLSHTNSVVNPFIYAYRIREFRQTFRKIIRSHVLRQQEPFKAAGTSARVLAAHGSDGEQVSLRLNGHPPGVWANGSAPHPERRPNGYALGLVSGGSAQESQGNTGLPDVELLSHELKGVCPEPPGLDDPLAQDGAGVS

The values that follow come from article PMC3371665 (Journal of Medicinal Chemistry, 2012).

SMILES strings stand for the structures.

mA2AAR, sequence (Q60613 whole entry): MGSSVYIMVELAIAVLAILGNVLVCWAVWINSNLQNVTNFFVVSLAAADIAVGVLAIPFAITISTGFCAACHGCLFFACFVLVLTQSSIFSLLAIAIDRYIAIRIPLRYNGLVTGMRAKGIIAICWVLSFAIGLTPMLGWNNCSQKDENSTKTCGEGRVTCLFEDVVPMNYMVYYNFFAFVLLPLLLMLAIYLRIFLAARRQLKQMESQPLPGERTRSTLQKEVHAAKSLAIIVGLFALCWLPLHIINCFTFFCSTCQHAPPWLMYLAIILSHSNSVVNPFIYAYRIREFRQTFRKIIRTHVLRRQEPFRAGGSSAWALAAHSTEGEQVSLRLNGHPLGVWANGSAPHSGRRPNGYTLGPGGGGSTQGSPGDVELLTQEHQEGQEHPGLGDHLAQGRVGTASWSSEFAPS

As for `CNC(=O)[C@@]12C[C@@H]1[C@@H](n1cnc3c(NCc4cccc(I)c4)nc(Cl)nc31)[C@H](O)[C@@H]2O` [Compound 4], the inhibition constant (Ki) at mA1AR was 7.32 ± 1.5 nM; on mA2AAR, 5350 nM; at mA3AR, 0.8 ± 0.14 nM. Turning to `CNC(=O)[C@@]12C[C@@H]1[C@@H](n1cnc3c(NC)nc(C#Cc4ccc(C(C)(C)C)cc4)nc31)[C@H](O)[C@@H]2O` [Compound 22, (1S,2R,3S,4R,5S)-4-(2-((4-tert-Butylphenyl)ethynyl)-6-(methylamino)-9H-purin-9-yl)-2,3-dihydroxy-N-methylbicyclo[3.1.0]hexane-1-carboxamide], the “reduction of A3AR binding affinity compared to the H analogue 9” value at hA3AR [1] was 12 fold. `CNC(=O)[C@@]12C[C@@H]1[C@@H](n1cnc3c(NCc4cccc(Cl)c4)nc(C#Cc4ccccc4)nc31)[C@H](O)[C@@H]2O` [Compound 27, (1S,2R,3S,4R,5S)-4-(6-(3-Chlorobenzylamino)-2-(phenylethynyl)-9H-purin-9-yl)-2,3-dihydroxy-N-methylbicyclo[3.1.0]hexane-1-carboxamide]: on hA1AR, the Ki was over 10000 nM. For `CNC(=O)[C@@]12C[C@@H]1[C@@H](n1cnc3c(NCc4cccc(Cl)c4)nc(C#Cc4ccc(F)c(F)c4)nc31)[C@H](O)[C@@H]2O` [Compound 31, (1S,2R,3S,4R,5S)-4-(6-(3-Chlorobenzylamino)-2-((3,4-difluorophenyl)ethynyl)-9H-purin-9-yl)-2,3-dihydroxy-N-methylbicyclo[3.1.0]hexane-1-carboxamide], the “agonist type at the A3AR” value at hA3AR [2] is “full agonist”.

Turning to `CNC(=O)[C@@]12C[C@@H]1[C@@H](n1cnc3c(NC)nc(C#Cc4ccc(F)cc4)nc31)[C@H](O)[C@@H]2O` [Compound 13, (1S,2R,3S,4R,5S)-4-(2-((4-Fluorophenyl)ethynyl)-6-(methylamino)-9H-purin-9-yl)-2,3-dihydroxy-N-methylbicyclo[3.1.0]hexane-1-carboxamide], the Ki at hA3AR [1] (Affinity (Ki) hA3, [125I]I-AB-MECA, CHO cells, n = 3–5) was about 0.6 nM. Take `CNC(=O)[C@@]12C[C@@H]1[C@@H](n1cnc3c(NC)nc(C#Cc4ccccc4)nc31)[C@H](O)[C@@H]2O` [Compound 9, (1S,2R,3S,4R,5S)-2,3-Dihydroxy-N-methyl-4-(6-(methylamino)-2-(phenylethynyl)-9H-purin-9-yl)bicyclo[3.1.0]hexane-1-carboxamide]: the inhibition at 10 µM is under 20% on hA1AR (read-out: % inhibition of radioligand binding hA1, at 10 μM, n = 3) and under 20% at hA2AAR (read-out: % inhibition of radioligand binding hA2A, at 10 μM, n = 3). Turning to `CNC(=O)[C@@]12C[C@@H]1[C@@H](n1cnc3c(NCc4cccc(Cl)c4)nc(C#Cc4ccc(-c5ccccc5)cc4)nc31)[C@H](O)[C@@H]2O` [Compound 34, (1S,2R,3S,4R,5S)-4-(2-(Biphenyl-4-ylethynyl)-6-(3-chlorobenzylamino)-9H-purin-9-yl)-2,3-dihydroxy-N-methylbicyclo[3.1.0]hexane-1-carboxamide], at hA1AR, the “activity at A1” value was “inactive”. Besides, the “activity at A2A” value at hA2AAR is “inactive”.

One may read the Ki as a dissociation constant, usually derived from enzyme kinetics or from competition with a known ligand. As usually defined, the inhibition is how much of the control response was suppressed.
